Tested on: MV-4-11 cells
Test: Gene expression microarray analysis (Affymetrix PrimeView) and GSEA
Format: cell-based, human
Design: RFU PODN (11730768_x_at) / Fold change /veh PODN (11730768_x_at) / RFU LINC00158 (11744669_a_at) / Fold change /veh LINC00158 (11744669_a_at) / RFU DUSP10 (11751237_a_at) / Fold change /veh DUSP10 (11751237_a_at) / RFU ID3 (11757404_x_at) / Fold change /veh ID3 (11757404_x_at) / RFU PLEKHG5 (11737974_s_at) / Fold change /veh PLEKHG5 (11737974_s_at) / RFU LRRC4B (11730491_at) / Fold change /veh LRRC4B (11730491_at) / RFU GIMAP4 (11747438_a_at) / Fold change /veh GIMAP4 (11747438_a_at) / RFU KRT8 (11758183_x_at) / Fold change /veh KRT8 (11758183_x_at) / RFU CNN1 (11734310_a_at) / Fold change /veh CNN1 (11734310_a_at) / RFU VPS37D (11726825_at) / Fold change /veh VPS37D (11726825_at) / RFU C10orf10 (11716522_x_at) / Fold change /veh C10orf10 (11716522_x_at) / RFU KIR2DL2 /// KIR2DL4 /// KIR2DL5A /// KIR2DL5B /// KIR2DS1 /// KIR2DS2 /// KIR2DS3 /// KIR2DS4 /// KIR3DL3 /// KIR3DL3 /// KIR3DS1 (11738374_at) / Fold change /veh KIR2DL2 /// KIR2DL4 /// KIR2DL5A /// KIR2DL5B /// KIR2DS1 /// KIR2DS2 /// KIR2DS3 /// KIR2DS4 /// KIR3DL3 /// KIR3DL3 /// KIR3DS1 (11738374_at) / RFU C1QL1 (11718748_at) / Fold change /veh C1QL1 (11718748_at) / RFU TMPRSS4 (11747572_a_at) / Fold change /veh TMPRSS4 (11747572_a_at) / RFU HAMP (11756126_x_at) / Fold change /veh HAMP (11756126_x_at) / RFU RNFT2 (11725882_a_at) / Fold change /veh RNFT2 (11725882_a_at) / RFU NR4A2 (11747474_a_at) / Fold change /veh NR4A2 (11747474_a_at) / RFU ABCC12 (11746883_a_at) / Fold change /veh ABCC12 (11746883_a_at) / RFU TMEM136 (11760407_x_at) / Fold change /veh TMEM136 (11760407_x_at) / RFU CLDN22 /// WWC2 (11732394_at) / Fold change /veh CLDN22 /// WWC2 (11732394_at) / RFU HLA-DPB1 (11760878_x_at) / Fold change /veh HLA-DPB1 (11760878_x_at) / RFU SPINT1 (11716480_a_at) / Fold change /veh SPINT1 (11716480_a_at) / RFU GAP43 (11754022_s_at) / Fold change /veh GAP43 (11754022_s_at) / RFU A4GNT (11735810_at) / Fold change /veh A4GNT (11735810_at) / RFU PRB3 (11715151_x_at) / Fold change /veh PRB3 (11715151_x_at) / RFU TUBB4B (11761932_at) / Fold change /veh TUBB4B (11761932_at) / RFU CAPN14 (11732068_a_at) / Fold change /veh CAPN14 (11732068_a_at) / RFU TMCC2 (11721928_a_at) / Fold change /veh TMCC2 (11721928_a_at) / RFU IRGQ (11745062_a_at) / Fold change /veh IRGQ (11745062_a_at) / RFU FAM174B (11720279_a_at) / Fold change /veh FAM174B (11720279_a_at) / RFU TMPRSS4 (11748680_a_at) / Fold change /veh TMPRSS4 (11748680_a_at) / RFU FAM212B (11763350_a_at) / Fold change /veh FAM212B (11763350_a_at) / RFU PLEKHG5 (11743358_a_at) / Fold change /veh PLEKHG5 (11743358_a_at) / RFU ZSCAN30 (11745921_a_at) / Fold change /veh ZSCAN30 (11745921_a_at) / RFU CMKLR1 (11741424_a_at) / Fold change /veh CMKLR1 (11741424_a_at) / RFU LOC101060620 /// MAPK8IP1 (11723275_at) / Fold change /veh LOC101060620 /// MAPK8IP1 (11723275_at) / RFU SPTSSB (11747773_x_at) / Fold change /veh SPTSSB (11747773_x_at) / RFU PRSS12 (11739890_at) / Fold change /veh PRSS12 (11739890_at) / RFU BIN1 (11741810_x_at) / Fold change /veh BIN1 (11741810_x_at) / RFU WNT11 (11732464_a_at) / Fold change /veh WNT11 (11732464_a_at) / RFU C10orf10 (11716521_a_at) / Fold change /veh C10orf10 (11716521_a_at) / RFU C5orf56 (11738089_at) / Fold change /veh C5orf56 (11738089_at) / RFU CYB561 (11721691_x_at) / Fold change /veh CYB561 (11721691_x_at) / RFU ANKRD19P (11752326_a_at) / Fold change /veh ANKRD19P (11752326_a_at) / RFU OR2T12 /// OR2T33 /// OR2T8 (11738714_s_at) / Fold change /veh OR2T12 /// OR2T33 /// OR2T8 (11738714_s_at) / RFU VCAN (11748164_a_at) / Fold change /veh VCAN (11748164_a_at) / RFU JSRP1 (11732532_at) / Fold change /veh JSRP1 (11732532_at) / RFU KRTAP10-11 (11738290_x_at) / Fold change /veh KRTAP10-11 (11738290_x_at) / RFU MYO3A (11730013_a_at) / Fold change /veh MYO3A (11730013_a_at) / RFU EBF3 (11725865_a_at) / Fold change /veh EBF3 (11725865_a_at) / RFU CAMK2N1 (11719241_x_at) / Fold change /veh CAMK2N1 (11719241_x_at) / RFU C5orf56 (11738088_a_at) / Fold change /veh C5orf56 (11738088_a_at) / RFU OLFML3 (11715873_a_at) / Fold change /veh OLFML3 (11715873_a_at) / RFU LOC100653217 /// NTM (11731650_a_at) / Fold change /veh LOC100653217 /// NTM (11731650_a_at) / RFU MAPK11 (11762145_a_at) / Fold change /veh MAPK11 (11762145_a_at) / RFU FIZ1 (11724087_x_at) / Fold change /veh FIZ1 (11724087_x_at) / RFU OASL (11726364_x_at) / Fold change /veh OASL (11726364_x_at) / RFU SOX15 (11748057_x_at) / Fold change /veh SOX15 (11748057_x_at) / RFU CD79A (11719716_a_at) / Fold change /veh CD79A (11719716_a_at) / RFU HIST1H1D (11736915_at) / Fold change /veh HIST1H1D (11736915_at) / RFU CASKIN2 (11723855_a_at) / Fold change /veh CASKIN2 (11723855_a_at) / RFU LOC730098 (11760151_x_at) / Fold change /veh LOC730098 (11760151_x_at) / RFU OR4N2 (11742367_at) / Fold change /veh OR4N2 (11742367_at) / RFU PRRT2 (11749266_a_at) / Fold change /veh PRRT2 (11749266_a_at) / RFU SNX32 (11753110_a_at) / Fold change /veh SNX32 (11753110_a_at) / RFU CDHR5 (11726645_a_at) / Fold change /veh CDHR5 (11726645_a_at) / RFU RCAN1 (11760418_a_at) / Fold change /veh RCAN1 (11760418_a_at) / RFU FAM167A (11723789_a_at) / Fold change /veh FAM167A (11723789_a_at) / RFU FAM26E (11764081_at) / Fold change /veh FAM26E (11764081_at) / RFU ISYNA1 (11749810_s_at) / Fold change /veh ISYNA1 (11749810_s_at) / RFU ACY1 (11761880_at) / Fold change /veh ACY1 (11761880_at) / RFU 11764098_at / Fold change /veh 11764098_at / RFU SAMD14 (11745864_x_at) / Fold change /veh SAMD14 (11745864_x_at) / RFU NPB (11741838_a_at) / Fold change /veh NPB (11741838_a_at) / RFU TMPRSS6 (11731388_a_at) / Fold change /veh TMPRSS6 (11731388_a_at) / RFU KRTAP10-2 (11738614_at) / Fold change /veh KRTAP10-2 (11738614_at) / RFU ARHGAP8 /// PRR5-ARHGAP8 (11727945_x_at) / Fold change /veh ARHGAP8 /// PRR5-ARHGAP8 (11727945_x_at) / RFU KRTAP5-7 /// NADSYN1 (11734609_at) / Fold change /veh KRTAP5-7 /// NADSYN1 (11734609_at) / RFU RASL12 (11751679_a_at) / Fold change /veh RASL12 (11751679_a_at) / RFU CDKN2B (11736163_a_at) / Fold change /veh CDKN2B (11736163_a_at) / RFU PRF1 (11729649_at) / Fold change /veh PRF1 (11729649_at) / RFU, ZNF638 /// ZNF638-IT1 / Fold change vs veh, ZNF638 /// ZNF638-IT1 / RFU, PANK3 / Fold change vs veh, PANK3 / RFU, SH3YL1 / Fold change vs veh, SH3YL1 / RFU, ZEB2 / Fold change vs veh, ZEB2 / RFU, NRIP1 / Fold change vs veh, NRIP1 / RFU, PTTG1IP / Fold change vs veh, PTTG1IP / RFU, CAPN2 / Fold change vs veh, CAPN2 / RFU, MED14 / Fold change vs veh, MED14 / RFU, SNORA58 / Fold change vs veh, SNORA58 / RFU, C1orf63 / Fold change vs veh, C1orf63 / RFU, LRRFIP1 / Fold change vs veh, LRRFIP1 / RFU, NDUFAF7 / Fold change vs veh, NDUFAF7 / RFU, SLC12A2 / Fold change vs veh, SLC12A2 / RFU, IBTK / Fold change vs veh, IBTK / RFU, ESF1 / Fold change vs veh, ESF1 / Fold change vs veh, TMEM50B / RFU, TAOK1 / Fold change vs veh, TAOK1 / RFU, ACBD3 / Fold change vs veh, ACBD3 / RFU, TMA16 / Fold change vs veh, TMA16 / RFU, RWDD3 / Fold change vs veh, RWDD3 / RFU, BCAT1 / Fold change vs veh, BCAT1 / RFU, EDEM3 / Fold change vs veh, EDEM3 / RFU, TMEM33 / Fold change vs veh, TMEM33 / RFU, WDR75 / Fold change vs veh, WDR75 / RFU, AHCTF1 / Fold change vs veh, AHCTF1 / RFU, TFRC / Fold change vs veh, TFRC / RFU, ZDHHC17 / Fold change vs veh, ZDHHC17 / RFU, NOM1 / Fold change vs veh, NOM1 / RFU, ARL8B / Fold change vs veh, ARL8B / RFU, ZBTB11 / Fold change vs veh, ZBTB11 / RFU, TAMM41 / Fold change vs veh, TAMM41 / RFU, KIAA1704 /// LOC100996395 / Fold change vs veh, KIAA1704 /// LOC100996395 / RFU, ING1 / Fold change vs veh, ING1 / RFU, TRMT61B / Fold change vs veh, TRMT61B / RFU, FUBP3 / Fold change vs veh, FUBP3 / RFU, TP53 / Fold change vs veh, TP53 / RFU, TNKS2 / Fold change vs veh, TNKS2 / RFU, ZFP14 / Fold change vs veh, ZFP14 / RFU, ACTR2 / Fold change vs veh, ACTR2 / RFU, PPP3R1 / Fold change vs veh, PPP3R1 / RFU, PIK3R1 / Fold change vs veh, PIK3R1 / RFU, HNRNPA1 / Fold change vs veh, HNRNPA1 / RFU, RNF170 / Fold change vs veh, RNF170 / RFU, ZNF28 / Fold change vs veh, ZNF28 / RFU, RNGTT / Fold change vs veh, RNGTT / RFU, OGT / Fold change vs veh, OGT / RFU, BRD1 / Fold change vs veh, BRD1 / RFU, MARS / Fold change vs veh, MARS / RFU, ZNF655 / Fold change vs veh, ZNF655 / RFU, FAHD1 / Fold change vs veh, FAHD1 / RFU, BDP1 / Fold change vs veh, BDP1 / RFU, LRRCC1 / Fold change vs veh, LRRCC1 / RFU, ARID1A / Fold change vs veh, ARID1A / RFU, ZNF146 / Fold change vs veh, ZNF146 / RFU, ZNF330 / Fold change vs veh, ZNF330 / RFU, GPN3 / Fold change vs veh, GPN3 / RFU, C9orf123 / Fold change vs veh, C9orf123 / RFU, N4BP2L2 / Fold change vs veh, N4BP2L2 / RFU, ARFIP1 / Fold change vs veh, ARFIP1 / RFU, FAM179B / Fold change vs veh, FAM179B / RFU, BCL10 / Fold change vs veh, BCL10 / RFU, UHRF1BP1L / Fold change vs veh, UHRF1BP1L / RFU, BET1 / Fold change vs veh, BET1 / RFU, CNOT2 / Fold change vs veh, CNOT2 / RFU, ZNF268 / Fold change vs veh, ZNF268 / Fold change vs veh, ZNF507 / RFU, DGCR2 / Fold change vs veh, DGCR2 / RFU, WDSUB1 / Fold change vs veh, WDSUB1 / Fold change vs veh, HSP90B1 /// MIR3652 / RFU, ADSS / Fold change vs veh, ADSS / RFU, GK / Fold change vs veh, GK / RFU, ZNF148 / Fold change vs veh, ZNF148 / RFU, TAF9 / Fold change vs veh, TAF9 / RFU, SLC1A5 / Fold change vs veh, SLC1A5 / RFU, SLMO2 / Fold change vs veh, SLMO2 / RFU, ABCC4 / Fold change vs veh, ABCC4 / RFU, LOC101060439 /// RAP1B / Fold change vs veh, LOC101060439 /// RAP1B / RFU, RFX7 / Fold change vs veh, RFX7 / RFU, GTPBP10 / Fold change vs veh, GTPBP10 / RFU, CNEP1R1 / Fold change vs veh, CNEP1R1 / RFU, BIVM-ERCC5 /// ERCC5 / Fold change vs veh, BIVM-ERCC5 /// ERCC5 / RFU, ILF3 / Fold change vs veh, ILF3 / RFU 11762660_at / Fold change /veh 11762660_at / RFU VCAN (11757783_s_at) / Fold change /veh VCAN (11757783_s_at) / RFU DDX43 (11728927_at) / Fold change /veh DDX43 (11728927_at) / RFU KRT8 (11758188_x_at) / Fold change /veh KRT8 (11758188_x_at) / RFU NKD1 (11759106_at) / Fold change /veh NKD1 (11759106_at) / RFU SRD5A1 (11742802_a_at) / Fold change /veh SRD5A1 (11742802_a_at) / RFU TPSAB1 /// TPSB2 (11721975_s_at) / Fold change /veh TPSAB1 /// TPSB2 (11721975_s_at) / RFU GSTM3 (11746129_a_at) / Fold change /veh GSTM3 (11746129_a_at) / RFU IL23R (11737362_x_at) / Fold change /veh IL23R (11737362_x_at) / RFU TMEM51 (11727254_a_at) / Fold change /veh TMEM51 (11727254_a_at) / RFU PIWIL2 (11732686_x_at) / Fold change /veh PIWIL2 (11732686_x_at) / RFU ORM1 (11744905_x_at) / Fold change /veh ORM1 (11744905_x_at) / RFU CCDC152 (11743942_at) / Fold change /veh CCDC152 (11743942_at) / RFU ECM1 (11717891_a_at) / Fold change /veh ECM1 (11717891_a_at) / RFU IL23R (11748794_a_at) / Fold change /veh IL23R (11748794_a_at) / RFU TNFAIP8L3 (11732012_x_at) / Fold change /veh TNFAIP8L3 (11732012_x_at) / RFU MBOAT4 (11741988_at) / Fold change /veh MBOAT4 (11741988_at) / RFU 11764193_at / Fold change /veh 11764193_at / RFU TMEM53 (11763286_at) / Fold change /veh TMEM53 (11763286_at) / RFU MAGEB2 (11727129_at) / Fold change /veh MAGEB2 (11727129_at) / RFU TMEM200A (11744735_a_at) / Fold change /veh TMEM200A (11744735_a_at) / RFU CCDC152 (11751479_a_at) / Fold change /veh CCDC152 (11751479_a_at) / RFU FAM211A (11726209_a_at) / Fold change /veh FAM211A (11726209_a_at) / RFU RGS16 (11746705_a_at) / Fold change /veh RGS16 (11746705_a_at) / RFU VCAN (11755009_s_at) / Fold change /veh VCAN (11755009_s_at) / RFU RHOB (11743442_s_at) / Fold change /veh RHOB (11743442_s_at) / RFU RGS16 (11720943_a_at) / Fold change /veh RGS16 (11720943_a_at) / RFU RGS16 (11720944_at) / Fold change /veh RGS16 (11720944_at) / RFU, VPS4B / Fold change vs veh, VPS4B / RFU, CREB1 / Fold change vs veh, CREB1 / RFU, DNAJC13 / Fold change vs veh, DNAJC13 / RFU, GNAQ / Fold change vs veh, GNAQ / RFU, CDK5R1 / Fold change vs veh, CDK5R1 / RFU, ZRANB3 / Fold change vs veh, ZRANB3 / RFU, CUL4A / Fold change vs veh, CUL4A / RFU, CCNY / Fold change vs veh, CCNY / RFU, UFL1 / Fold change vs veh, UFL1 / RFU, COG3 / Fold change vs veh, COG3 / RFU, DIAPH2 / Fold change vs veh, DIAPH2 / RFU, SKA2 / Fold change vs veh, SKA2 / RFU, AFF3 / Fold change vs veh, AFF3 / RFU, LMF1 / Fold change vs veh, LMF1 / RFU, IPO11 / Fold change vs veh, IPO11 / RFU, DFFB / Fold change vs veh, DFFB / RFU, FOXP1 / Fold change vs veh, FOXP1 / RFU, CARD8 / Fold change vs veh, CARD8 / RFU, STRN3 / Fold change vs veh, STRN3 / RFU, ADK / Fold change vs veh, ADK / RFU, RASSF2 / Fold change vs veh, RASSF2 / RFU, WIPF1 / Fold change vs veh, WIPF1 / RFU, LARP1B / Fold change vs veh, LARP1B / RFU, RASA1 / Fold change vs veh, RASA1 / RFU, RB1 / Fold change vs veh, RB1 / RFU, PPFIA1 / Fold change vs veh, PPFIA1 / RFU, MAT2A / Fold change vs veh, MAT2A / RFU, CCT5 / Fold change vs veh, CCT5 / RFU, WDR92 / Fold change vs veh, WDR92 / RFU, CUX1 / Fold change vs veh, CUX1 / RFU, TTC7A / Fold change vs veh, TTC7A / RFU, TMEM135 / Fold change vs veh, TMEM135 / RFU, DEPTOR / Fold change vs veh, DEPTOR / RFU, CPM / Fold change vs veh, CPM / RFU, DNAJB6 / Fold change vs veh, DNAJB6 / RFU, CACNA2D3 / Fold change vs veh, CACNA2D3 / RFU, DTX4 / Fold change vs veh, DTX4 / RFU, TFCP2 / Fold change vs veh, TFCP2 / RFU, GMCL1 /// GMCL1P1 / Fold change vs veh, GMCL1 /// GMCL1P1 / RFU, AEBP2 / Fold change vs veh, AEBP2 / RFU, SNHG1 /// SNORD22 /// SNORD25 /// SNORD26 /// SNORD27 /// SNORD28 /// SNORD29 /// SNORD31 / Fold change vs veh, SNHG1 /// SNORD22 /// SNORD25 /// SNORD26 /// SNORD27 /// SNORD28 /// SNORD29 /// SNORD31 / Fold change (Aza/veh), C12orf56 (ProbeSet 11735607_a_at) / Fold change (ACY-1035/veh), C12orf56 (ProbeSet 11735607_a_at) / Fold change (Aza/veh), FGFR1OP (ProbeSet 11751329_s_at) / Fold change (ACY-1035/veh), FGFR1OP (ProbeSet 11751329_s_at) / Fold change (Aza/veh), VPS36 (ProbeSet 11739960_a_at) / Fold change (ACY-1035/veh), VPS36 (ProbeSet 11739960_a_at) / RFU SYPL1 (11715823_x_at) / Fold change /veh SYPL1 (11715823_x_at) / RFU IGFBP7 (11715501_s_at) / Fold change /veh IGFBP7 (11715501_s_at) / RFU REEP3 (11722064_at) / Fold change /veh REEP3 (11722064_at) / RFU IGLL1 (11728026_x_at) / Fold change /veh IGLL1 (11728026_x_at): dose or concentration left out as unconfirmed
Details: MV-4-11 cells, 48 hours

Nc1ncn([C@@H]2O[C@H](CO)[C@@H](O)[C@H]2O)c(=O)n1 [azacitidine]
RFU VCAN (11755009_s_at): 15.18 RFU

— publication PMC5218480 (PLoS ONE, 2017)
